In patent US4839374A, “4-((Bicyclic heterocyclyl)-methyl and -hetero)-piperidines” (Janssen Pharmaceutica, N.V., priority 1987, dated 1989):
Like-named read-outs stand apart in the source and are kept apart here.

How the values were obtained:
[1] = tested on: compound 48/80-induced lethality; assay: Protection of rats from compound 48/80-induced lethality; format: in vivo, rats of an inbred Wistar strain; conditions: Rattus norvegicus, 4 h, read-out: Compound 48/80 lethality test in rats ED50, s.c. or p.o. 1 h before compound 48/80 0.5 mg/kg i.v.; protection of 50% of animals, survival after 4 hours
Procedure, shortened: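 Male inbred Wistar rats (240-260 g), starved overnight, dosed subcutaneously or orally with compound or 0.9% NaCl before compound 48/80 challenge. Survival at 4 hours counted as protection. ED50 in mg/kg is the dose protecting 50% of animals from lethality.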

effects of serotonin = assay: Antagonistic activity on the effects of serotonin in the gastric lesion test (lesions induced by compound 48/80); format: in vivo, rats of a Wistar inbred strain; conditions: Rattus norvegicus, po, read-out: gastric lesion test ED50
Experimental: Antagonistic activity on the effects of serotonin in the gastric lesion test.
The shock, followed by dead, can be avoided if the rats are pretreated with a classical H 1 antagonist.
Male rats of a Wistar inbred strain, weighing 220-250 g, were starved overnight, water being available ad libitum. The test compounds were administered orally as a solution or as a suspension in aqueous medium. A control rat and a "blank" rat received the test compound. One hour later 5-[4-(diphenylmethyl)1-piperazinylmethyl]-1-methyl-1H-benzimidazole-2-methanol was administered subcutaneously to all rats at the dose of 2.5 mg/kg. […] Four hours after the intravenous injection of compound 48/80, the rats were decapitated and the stomachs were removed. Subsequently the stomachs were inspected for distension and contents (blood, fluid, food) and thoroughly rinsed. The macroscopic lesions were scored from 0 to +++, 0 corresponding to complete absence of visible lesions and the highest score corresponding to reddish rough patches covering more than half the glandular area.
The second column of tables 1-4 show for a number of compounds of formula (I) the doses (in mg/kg body weight) at which the distension of the stomach as well as the lesions in the glandular area of the stomach are completely absent in 50% of the test rats (ED50 -value).

[2] = compound 48/80 1 mg/kg i.v., distension and lesions of stomach completely absent in 50% of rats

| SMILES | ED50 [1] [mg/kg] | ED50 (effects of serotonin; [2]) [mg/kg] | ED50 (effects of serotonin) [mg/kg] |
| --- | --- | --- | --- |
| Nc1nccnc1C(=O)NCCN1CCC(Cc2nc3ccccc3n2Cc2ccc(F)cc2)CC1 [Compound 436, 3-amino-N[2-[4-[[1-[(4-fluorophenyl)methyl]-1H-benzimidazol-2-yl]methyl]-1-piperidinyl]ethyl]-2-pyrazinecarboxamide] | 0.01 | 0.63 |  |
| COc1ccc(CCN2CCC(Cc3nc4ccc(OC)cc4n3Cc3ccc(F)cc3)CC2)cc1 [Compound 273] | 0.01 | 0.31 |  |
| OCCN1CCC(Cc2nc3ccccc3n2Cc2ccc(F)cc2)CC1 [Compound 107, 4-[[1-[(4-fluorophenyl)methyl]-1H-benzimidazol-2-yl]methyl]-1-piperidineethanol] | 0.04 |  | 0.08 |
| Fc1ccc(Cn2c(CC3CCN(CCNc4ncccn4)CC3)nc3ccncc32)cc1 [Compound 351, N-[2-[4-[[3-[(4-fluorophenyl)methyl]-3H-imidazo[4,5-c]pyridin-2-yl]methyl]-1-piperdinyl]-ethyl]-2-pyrimidinamine] | 0.02 |  | 0.08 |
| c1ccc(Cn2c(CC3CCN(CCNc4nccs4)CC3)nc3cccnc32)cc1 [Compound 362] | 0.08 | 0.63 |  |
| Cc1nc2scc(C)n2c(=O)c1CCN1CCC(Cc2nc3ccccc3n2Cc2ccc(F)cc2)CC1 [Compound 219] | 0.08 | 0.63 |  |
| O=C(NCCN1CCC(Cc2nc3ccccc3n2Cc2ccc(F)cc2)CC1)C(=O)c1cccs1 [Compound 439, N[2-[;b 4-[[1-[(4-fluorophenyl)methyl]-1H-benzimidazol-2-yl]methyl]-1-piperidinyl]ethyl]-α-oxo-2-thiopheneacetamide] | 0.16 | 0.31 |  |
| Fc1ccc(Cn2c(CC3CCN(CCNc4nc5cccnc5s4)CC3)nc3ccccc32)cc1 [Compound 330, N-[2-[4-[[1-[(4-fluorophenyl)methyl]-1H-benzimidazol-2-yl]methyl]-1-piperidinyl]ethyl]thiazolo[5,4-b]pyridin-2-amine] | 0.08 | 0.16 |  |
| Fc1ccc(Cn2c(CC3CCN(Cc4cn5ccccc5n4)CC3)nc3ccccc32)cc1 [Compound 184] | 0.02 | 0.63 |  |
| Fc1ccc(Cn2c(CC3CCN(CCc4cccs4)CC3)nc3ccccc32)cc1 [Compound 118, 1-[(4-fluorophenyl)methyl]-2-[[1-[2-(2-thienyl)ethyl]-4-piperidinyl]-methyl]-1H-benzimidazole] | 0.04 | 0.63 |  |
| Cc1nc2scc(C)n2c(=O)c1CCN1CCC(Cc2nc3cccnc3n2Cc2ccco2)CC1 [Compound 151, 6-[2-[4-[[3-(2-furanylmethyl)-3H-imidazo[4,5-b]pyridin-2-yl]methyl]-1-piperidinyl]ethyl]-3,7-dimethyl-5H-thiazolo[3,2-a]pyrimidin-5-one] | 0.02 | 0.16 |  |
| COc1ccc(CCN2CCC(Cc3nc4cccnc4n3Cc3ccco3)CC2)cc1 [Compound 189] | 0.02 | 0.63 |  |
| Oc1ccc(CCN2CCC(Cc3nc4ccccc4n3Cc3ccc(F)cc3)CC2)cc1 [Compound 504, 4-[2-[4-[[1-[(4-fluorophenyl)methyl]-1H-benzimidazol-2-yl]methyl]-1-piperidinyl]ethyl]phenol] | 0.08 | 0.63 |  |
| c1cnc(OCCN2CCC(Cc3nc4ccccc4n3Cc3ccco3)CC2)nc1 [Compound 392, 1-(2-furanylmethyl)-2-[[1-[2-(2-pyrimidinyloxy)ethyl]-4-piperidinyl]methyl]-1H-benzimidazole] | 0.02 | 0.63 |  |
| O=c1[nH]c2ccccc2n1CCCN1CCC(Cc2nc3ccccc3n2Cc2ccc(F)cc2)CC1 [Compound 207] | 0.08 |  | 0.08 |
| CCOCCN1CCC(Cc2nc3ccccc3n2Cc2ccc(F)cc2)CC1 [Compound 133] | 0.02 | 0.16 |  |
| Fc1ccc(Cn2c(CC3CCN(Cc4ccccc4)CC3)nc3ccccc32)cc1 [Compound 34, 1-[(4-fluorophenyl)methyl]-2-[[1-(phenylmethyl)-4-piperidinyl]methyl]-1H-benzimidazole] | 0.04 | 0.63 |  |
| Fc1ccc(Cn2c(CC3CCNCC3)nc3ccccc32)cc1 [Compound 47, 1-[(4-fluorophenyl)methyl]-2-(4-piperidinylmethyl)-1H-benzimidazole] | 0.08 | 0.63 |  |

| SMILES | ED50 [1] [mg/kg] | ED50 (effects of serotonin; [2]) [mg/kg] | ED50 (effects of serotonin) [mg/kg] |
| --- | --- | --- | --- |
| O=[N+]([O-])c1cc[n+]([O-])cc1NCCN1CCC(Cc2nc3ccccc3n2Cc2ccc(F)cc2)CC1 [Compound 379, N-[2-[4-[[1-[(4-fluorophenyl)methyl]-1H-benzimidazol-2-yl]methyl]-1-piperidinyl]ethyl]-4-nitro-3-pyridinamine, 1-oxide] | 0.08 | 0.31 |  |
| CCCC(=O)c1ccc(OC)c(C(=O)NCCN2CCC(Cc3nc4ccccc4n3Cc3ccc(F)cc3)CC2)c1 [Compound 441, N-[2-[4-[[1-[(4-fluorophenyl)methyl]-1H-benzimidazol-2-yl]methyl]-1-piperidinyl]ethyl]-2-methoxy-5-(1-oxobutyl)benzamide] | 0.08 | 0.16 |  |
| CN1CCC(Cc2nc3ccccc3n2Cc2ccc(F)cc2)CC1 [Compound 82] | 0.005 | 0.63 |  |
| S=C=NCCN1CCC(Cc2nc3ccccc3n2Cc2ccco2)CC1 [Compound 399] | 0.02 |  | 0.04 |
| Fc1ccc(Cn2c(CC3CCN(CCNc4ncccn4)CC3)nc3ncccc32)cc1 [Compound 348, N-[2-[4[[1-[(4-fluorophenyl)methyl]-1H-imidazo[4,5-b]pyridin-2-yl]methyl]-1-piperidinyl]ethyl]-2-pyrimidinamine] | 0.04 |  | 0.04 |
| Fc1ccc(Cn2c(CC3CCN(CCNc4nccs4)CC3)nc3cccnc32)cc1 [Compound 357] | 0.02 | 0.63 |  |
| Cc1nc2n(c(=O)c1CCN1CCC(Cc3nc4cccnc4n3Cc3ccco3)CC1)CCS2 [Compound 168] | 0.04 | 0.63 |  |
| O=c1[nH]c2ccccc2c(=O)n1CCN1CCC(Cc2nc3ccccc3n2Cc2ccco2)CC1 [Compound 208] | 0.04 |  | 0.08 |
| Fc1ccc(Cn2c(CC3CCN(CCNc4nnc(Cl)c5ccccc45)CC3)nc3ccccc32)cc1 [Compound 381, 4-chloro-N-[2-[4-[[1-[(4-fluorophenyl)methyl]-1H-benzimidazol-2-yl]methyl]-1-piperidinyl]ethyl]-1-phthalazinamine] | 0.08 | 0.16 |  |
| CCNC(=O)NCCN1CCC(Cc2nc3ccccc3n2Cc2ccc(F)cc2)CC1 [Compound 430, N-ethyl-N'-[2-[4-[[1-[(4-fluorophenyl)methyl]-1H-benzimidazol-2-yl]methyl]-1-piperidinyl]ethyl]urea] | 0.01 | 0.005 |  |
| Nc1ccccc1C(=O)NCCN1CCC(Cc2nc3ccncc3n2Cc2ccc(F)cc2)CC1 [Compound 477, 2-amino-N-[2-[4-[[3-[(4-fluorophenyl)methyl]-3H-imidazo[4,5-c]pyridin-2-yl]-methyl]-1-piperidinyl]-ethyl]benzamide] | 0.02 | 0.63 |  |
| COc1ccc(CCN2CCC(Cc3nc4ccccc4n3Cc3ccsc3)CC2)cc1 [Compound 523, 2-[[1-[2-(4-methoxyphenyl)ethyl]-4-piperidinyl]methyl]-1-(3-thienylmethyl)-1H-benzimidazole] | 0.04 | 0.31 |  |
| Cn1cnc([N+](=O)[O-])c1N1CCC(N2CCC(Cc3nc4ccccc4n3Cc3ccc(F)cc3)CC2)CC1 [Compound 380, 4-[[1-[(4-fluorophenyl)methyl]-1H-benzimidazol-2-yl]methyl]-1'-(1-methyl-4-nitro-1H-imidazol-5-yl)-[1,4'-bipiperidine]] | 0.31 | 0.63 |  |
| CC(C)NC(=O)CCN1CCC(Cc2nc3ccccc3n2Cc2ccc(F)cc2)CC1 [Compound 145, 4-[[1-[(4-fluorophenyl)methyl]-1H-benzimidazol-2-yl]methyl]-N-(1-methylethyl)-1-piperidinepropanamide] | 0.02 | 0.16 |  |
| CC(C)NC(=O)CCN1CCC(Cc2nc3cccnc3n2Cc2ccc(F)cc2)CC1 [Compound 143, 4-[[3-[(4-fluorophenyl)methyl]-3H-imidazo[4,5-b]pyridin-2-yl]methyl]-N-(1-methylethyl)-1-piperidinepropanamide] | 0.04 | 0.63 |  |
| Fc1ccc(Cn2c(CC3CCN(CCN4CCOCC4)CC3)nc3ccccc32)cc1 [Compound 131] | 0.02 | 0.16 |  |
| Cc1nc2ccccn2c(=O)c1CCN1CCC(Cc2nc3cccnc3n2Cc2ccco2)CC1 [Compound 180] | 0.01 | 0.31 |  |
| CC(=O)N(CCN1CCC(Cc2nc3ccccc3n2Cc2ccc(F)cc2)CC1)c1ncccn1 [Compound 510, N-[2-[4-[[1-[(4-fluorophenyl)methyl]-1H-benzimidazol-2-yl]methyl]-1-piperidinyl]ethyl]-N-(2-pyrimidinyl)acetamide] | 0.02 | 0.16 |  |
